Laboratory results taken from US20150272950A1, “COMBINATION” (GLAXOSMITHKLINE LLC, priority 2012, published 2015).

System: SKOV3 cells (human ovarian carcinoma)
Test: SKOV3 subcutaneous xenograft tumor growth inhibition in female SCID mice
Type: in vivo
Conditions: 21 days, alone, SKOV3 tumors in SCID mice
Description: Female SCID mice were implanted subcutaneously with 5×10^6 SKOV3 cells (human ovarian carcinoma). When the tumor volume reached 300-400 mm^3, mice were block randomized to different treatment groups (n=8 mice/group). Mice received AKT inhibitor, Compound B (in this assay, Compound B, is used in the form of the free or unsalted compound), at 10 or 30 mg/kg, once daily (SID) for 21 days in 20% PEG-400, 1% DMSO in water. Compound A (in this assay, Compound A, is used in the form of monohydrochloride salt) was administered at 100 mg/kg, twice/day (BID) for 21 days either alone or in combination with Compound B. Mice were weighed and tumors measured by calipers twice weekly. Tumor volumes were calculated using the formula: tumor volume=(Length×Width^2)/2. The percentage of tumor growth inhibition was calculated on each day of tumor measurement using the formula: 100×[1-(average growth of the compound-treated tumors/average growth of vehicle-treated control tumors)].

Cc1ccc(Nc2nccc(N(C)c3ccc4c(C)n(C)nc4c3)n2)cc1S(N)(=O)=O [Compound A, 5-[[4-[(2,3-dimethyl-2H-indazol-6-yl)methylamino]-2-pyrimidinyl]amino]-2-methylbenzenesulfonamide, reference compound]
inhibition of tumor growth compared to vehicle treated mice (Compound A (monohydrochloride salt) 100 mg/kg, twice daily): 47%

Cn1ncc(Cl)c1-c1cc(C(=O)N[C@H](CN)Cc2ccc(F)c(F)c2)oc1Cl [Compound B, N-{(1S)-2-amino-1-[(3,4-difluorophenyl)methyl]ethyl}-5-chloro-4-(4-chloro-1-methyl-1H-pyrazol-5-yl)-2-furancarboxamide]
inhibition of tumor growth compared to vehicle treated mice (Compound B (free compound) 10 mg/kg, once daily): 67% | inhibition of tumor growth compared to vehicle treated mice (Compound B (free compound) 30 mg/kg, once daily): 86%
